According to ChEMBL document CHEMBL1201862, “PubChem BioAssay data set” (2004):
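Five concentrations, 48 hours, 96-well plates. The concentration for 50% growth inhibition is given as GI50.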 Active and inactive are the calls of the source. Cut-off read from the data, not from the text of the source: active = GI50 up to about 1.1 µM and inactive = higher.

Columns and labels:
Experiment in all cases: NCI anticancer screen, dose series, 48 h
CAKI-1 = system: CAKI-1
COLO 205 = system: COLO 205
HCC 2998 = system: HCC 2998
HCT-116 = system: HCT-116
HT-29 = system: HT-29
IGROV-1 = system: IGROV-1
KM12 = system: KM12
MDA-MB-435 = system: MDA-MB-435
MOLT-4 = system: MOLT-4
NCI-H226 = system: NCI-H226
NCI-H522 = system: NCI-H522
NCI/ADR-RES = system: NCI/ADR-RES
OVCAR-5 = system: OVCAR-5
SF-268 = system: SF-268
SK-OV-3 = system: SK-OV-3
T47D = system: T47D
U-251 = system: U-251
SF-539 = system: SF-539

SMILES | GI50 (CAKI-1) | GI50 (COLO 205) | GI50 (HCC 2998) | GI50 (HCT-116) | GI50 (HT-29) | GI50 (IGROV-1) | GI50 (KM12) | GI50 (MDA-MB-435) | GI50 (MOLT-4) | GI50 (NCI-H226) | GI50 (NCI-H522) | GI50 (NCI/ADR-RES) | GI50 (OVCAR-5) | GI50 (SF-268) | GI50 (SK-OV-3) | GI50 (T47D) | GI50 (U-251) | GI50 (SF-539)
COc1cn2c(cc1=O)COc1ccc(-c3ccccc3)cc1-2 | 43.4 µM (inactive) | 56 µM (inactive) | 46.9 µM (inactive) | 40 µM (inactive) | 45.4 µM (inactive) | 38.8 µM (inactive) | 52.1 µM (inactive) | 39.7 µM (inactive) | 44.5 µM (inactive) | 64.6 µM (inactive) | 27.9 µM (inactive) | 49.9 µM (inactive) | > 96.2 µM (inactive) | 60.8 µM (inactive) | > 73.8 µM (inactive) | 20.5 µM (inactive) | 65.2 µM (inactive) | 
O=C(N/C(=C\c1cccc([N+](=O)[O-])c1)c1nc2c3c(ccc2[nH]1)C(=O)c1ccccc1C3=O)c1ccccc1 | 7.18 µM (inactive) |  |  | 31.6 µM (inactive) | 35.6 µM (inactive) |  | 14.5 µM (inactive) |  |  | 14 µM (inactive) | 16.5 µM (inactive) |  | 26.5 µM (inactive) | 17.8 µM (inactive) | 6.78 µM (inactive) |  | 34.8 µM (inactive) | 21.4 µM (inactive)
C=C1C(=O)OC2C=C(CCC(C)=O)C(C)C(OC(C)=O)CC12 (centres undefined) | 8.83 µM (inactive) |  | 9.93 µM (inactive) | 5.19 µM (inactive) | 11.8 µM (inactive) | 21.5 µM (inactive) | 16.1 µM (inactive) |  | 6.1 µM (inactive) | 13.6 µM (inactive) |  |  | 16.1 µM (inactive) | 16.1 µM (inactive) |  |  | 17.1 µM (inactive) | 15.2 µM (inactive)
COC1(C)C(=O)N2C1N(C(=O)OCc1ccccc1)CC2(C)C (centres undefined) |  | > 100 µM (inactive) | > 100 µM (inactive) | > 100 µM (inactive) | > 100 µM (inactive) | > 100 µM (inactive) |  |  | > 100 µM (inactive) | > 100 µM (inactive) |  |  |  | > 100 µM (inactive) |  |  | > 100 µM (inactive) | > 100 µM (inactive)
O=C(CC1(O)C(=O)Nc2c(Cl)cc(Cl)cc21)c1ccc(F)cc1 (centres undefined) | 92 µM (inactive) | 19 µM (inactive) | 40 µM (inactive) | 35.4 µM (inactive) | 27.3 µM (inactive) | 28.3 µM (inactive) | 37.2 µM (inactive) |  |  | 33.3 µM (inactive) |  |  | 64.7 µM (inactive) | 39.6 µM (inactive) | 93.8 µM (inactive) |  | 31.3 µM (inactive) | 28.4 µM (inactive)
O=C1C(=Cc2cccs2)C(=O)N(CCc2ccccc2)S(=O)(=O)N1CCc1ccccc1 |  | > 50 µM (inactive) | > 50 µM (inactive) | 11.7 µM (inactive) | > 50 µM (inactive) | 9.2 µM (inactive) | > 50 µM (inactive) |  | > 50 µM (inactive) | > 50 µM (inactive) | 15.5 µM (inactive) |  | > 50 µM (inactive) | 36.2 µM (inactive) | > 50 µM (inactive) |  | 12.9 µM (inactive) | > 50 µM (inactive)
C=CCC1(CN(C)C)CC/C(=C\c2ccc(Cl)cc2)C1=O (centres undefined) | > 100 µM (inactive) | 27.2 µM (inactive) | 33.1 µM (inactive) | 19.9 µM (inactive) | 24.1 µM (inactive) | 29.2 µM (inactive) | 29.5 µM (inactive) |  | 17.9 µM (inactive) | 96.8 µM (inactive) | 18.9 µM (inactive) |  | > 77.4 µM (inactive) | 37.8 µM (inactive) | > 100 µM (inactive) |  | 38.1 µM (inactive) | > 54.1 µM (inactive)
COC(=O)CCSC(=O)Nc1ccccc1Cl | > 100 µM (inactive) | > 100 µM (inactive) | > 100 µM (inactive) | > 100 µM (inactive) | > 100 µM (inactive) |  | > 100 µM (inactive) |  | > 100 µM (inactive) | > 100 µM (inactive) | 1.36 µM (inactive) |  | > 100 µM (inactive) | > 100 µM (inactive) |  |  | > 100 µM (inactive) | > 100 µM (inactive)
COc1ccc2c(c1)c(=O)c1c(NCCN(C)C)ccc3nnn2c31 | 3.01 µM (inactive) | 1.36 µM (inactive) | 2.76 µM (inactive) | 0.655 µM (active) | 1.57 µM (inactive) | 3.33 µM (inactive) | 1.11 µM (active) |  | 0.321 µM (active) | 2.46 µM (inactive) | 2.7 µM (inactive) |  | 4.06 µM (inactive) | 2.13 µM (inactive) | 4.01 µM (inactive) |  | 3.08 µM (inactive) | 4.04 µM (inactive)
COC1OC(C)C2OC(C)(C)OC2C1OC(C)=O (centres undefined) | > 100 µM (inactive) | > 100 µM (inactive) | > 100 µM (inactive) | > 100 µM (inactive) | > 100 µM (inactive) | > 100 µM (inactive) | > 100 µM (inactive) |  | > 100 µM (inactive) | > 100 µM (inactive) | > 100 µM (inactive) |  | > 100 µM (inactive) | > 100 µM (inactive) |  |  | > 100 µM (inactive) | > 100 µM (inactive)
